Experimental data: patent US10392392B2, “Substituted imidazo[1,2-B]pyridazines as protein kinase inhibitors” (Tolero Pharmaceuticals, Inc., priority 2011, dated 2019)

Columns and labels:
[1] = test system: 22RV1/PIM-1 xenografts; test: 22RV1/PIM-1 over-expression tumor xenograft; format: in vivo, mouse; conditions: mice bearing 22RV1 or 22RV1/PIM-1 xenografts
Source text: (§1) Male and female Nu/Nu mice were purchased from Harlan Sprague Dawley (Indianapolis, Ind.). Female Nu/Nu mice were used for all xenograft evaluations with the exception of the PC-3 xenografts where male Nu/Nu mice were used. Cell lines were expanded in vitro in complete media, and if adherent were harvested by trypsin-EDTA, centrifuged and resuspended in PBS 1:1 with Matrigel (BD Bioscienes). Cells were inoculated subcutaneously in the right hind flank of mice. When tumors reached 100-200 mm^3 by caliper measurement, mice were randomized and dosing of SGI-9481 or vehicle control began and continued every day for 5 days (QD×5) with 2 days off for 18-21 days. Tumor volumes and body weights were determined twice a week, and tumor weights were measured at the completion of the translational xenograft studies.
(§2) The prostate cancer cell line 22RV1 engineered to over-express PIM-1 as previously described (Mumenthaler, et al, Mol. Cancer Ther., 2009, 8(10)2882-93) was evaluated in vivo. A second model engineered to over-express PIM-2 was established using the NIH-3T3 mouse fibroblast cell line.

[2] = Pharmacokinetic studies of PC-3 tumor-burdened mice; format: in vivo, mouse; conditions: 200 mg/kg dosing
[3] = test system: ML-2 cells (wild-type FLT3) xenografts; test: ML-2 (wild-type FLT3) mouse xenograft; format: in vivo
Source text: as §1

[4] = test system: PC-3 xenograft tumors; test: Established PC-3 mouse xenograft tumors; format: in vivo; conditions: oral dosing of 200 mg/kg
Source text: as §1, with “When tumors reached 100-200 mm^3 by caliper measurement, mice were randomized and dosing of SGI-9481 or vehicle control began and continued every day for 5 days (QD×5) with 2 days off for 18-21 days.” left out

[5] = test system: NIH-3T3/PIM-2 xenografts; test: NIH-3T3/PIM-2 over-expression tumor xenograft; format: in vivo, mouse; conditions: mice bearing NIH-3T3 or NIH-3T3/PIM-2 xenografts
Source text: as §1, §2

[6] = test system: UM-UC-3 xenograft tumors; test: Established UM-UC-3 mouse xenograft tumors; format: in vivo; conditions: oral dosing of 200 mg/kg
Source text: as §1, with “When tumors reached 100-200 mm^3 by caliper measurement, mice were randomized and dosing of SGI-9481 or vehicle control began and continued every day for 5 days (QD×5) with 2 days off for 18-21 days.” left out

[7] = test system: PC-3 cells; test: Colony formation assay, PC-3; format: cell-based
Procedure: (§3) For shRNA growth experiments, 500 UM-UC-3 cells were seeded in a 12-well plate 48 hours post-transduction and cultured for 8-10 days at 37° C. in 5% CO2. Cells were fixed with 4% paraformaldehyde in PBS, washed twice with PBS, and stained with a crystal violet solution (1% crystal violet, 10% ethanol in water). Stained cells were washed thrice with water, and imaged after drying on a GelCount colony counter (Oxford Optronix Ltd., Oxford, UK). Total staining intensity per well was determined by lysis of cells with 200 μl of Triton X-100 lysis buffer (1% Triton X-100, 50 mM Tris-HCl pH 7.4, 150 mM NaCl, 1 mM EDTA). Lysates (100 μl) from each well were transferred to a clear 96-well plate and absorbance at 560 nm was determined on an Envision microplate reader. IC50 values were determined using GraphPad Prism software. For compound treated PC-3 and UM-UC-3, cells were seeded and stained as above, but were incubated with various concentrations of test compound or DMSO one day after seeding.
(§4) Translational models were also explored for PIM dependency using shRNA knockdown. The UM-UC-3 urinary epithelial bladder carcinoma cell line was used to verify and validate dependency on PIM-1 for growth. […] Reduction of PIM-1 mRNA and growth also were observed using both PIM-1 and PIM-2 shRNA in the androgen-independent prostate carcinoma cell line PC-3 (data not shown).

[8] = test system: UM-UC-3 cells; test: Colony formation assay, UM-UC-3; format: cell-based
Procedure: as §3, §4

[9] = test system: MOLM-13; test: In vitro viability assay, MOLM-13; format: cell-based
Procedure: (§5) Adherent or suspension cancer cell lines were seeded at 2000-5000 cells/well in a 96-well plate, or 1000-2000 cells/well in a 384-well plate. Suspension cells were treated with drug the same day as seeding, while adherent cells were incubated overnight at 37° C. in 5% CO2 prior to drug treatment. All cells were treated for 72 hours, then lysed with ATPlite (Perkin Elmer) and measured on an Envision microplate reader. IC50 values were determined using GraphPad Prism software.
(§6) Over 35 cell lines were tested, and the most sensitive cell lines from various indications were selected and verified by multiple EC50 determinations (FIG. 6). […] Anti-proliferative activity using PIM-2 shRNA against FLT3-ITD driven leukemia lines has been observed (Adam (2006) Cancer Res 66:3828-35 data not shown).

[10] = test system: MV-4-11; test: In vitro viability assay, MV-4-11; format: cell-based
Procedure: as §5, §6

In the case of `CC(C)(O)[C@H]1CC[C@H](Nc2ccc3ncc(-c4cccc(C(F)(F)F)c4)n3n2)CC1` [Compound 8-31], the “changes in body weight” value [1] is reported as “No significant changes”, the plasma levels [2] is reported as “above the in vitro proliferation EC50” and the tumor tissue levels [2] is reported as “above the in vitro proliferation EC50”. The tumor growth [3] was “significant tumor growth inhibition”, the “changes in body weight or gross adverse toxicity” value [4] was “no significant changes” and the “tumor growth measured by volume (caliper) and by final tumor weight” value [4] was “significantly reduced”. For the same compound, the “changes in body weight” value [5] was “No significant changes”, the “changes in body weight or gross adverse toxicity” value [6] was “no significant changes” and the “tumor growth measured by volume (caliper) and by final tumor weight” value [6] was “significantly reduced”. For the same compound, the colony growth [7] was “reduced” and the colony growth [8] was “reduced”.
In the case of `CC(C)(O)[C@H]1CC[C@H](Nc2ccc3ncc(-c4cccc(C(F)(F)F)c4)n3n2)CC1` [SGI-9481], the “sensitivity of cell line” value [9] is reported as “particularly sensitive” and the “sensitivity of cell line” value [10] is reported as “particularly sensitive”.
